Measurements reported in US20220331408A1, “TREATMENT OF GLYCOGEN STORAGE DISEASE (GSD)” (GENETHON, priority 2019, published 2022).

Assays:
[1] = target: T1, human GAA (hGAA) (Homo sapiens, UniProt P10253); assay: Mature lysosomal 70 KDa hGAA in tissues (uptake) by Western blot, wild-type mice injected with AAV-GAA plus chaperones; assay type: in vivo; design: expressed in transfected cells; conditions: for GAA uptake in tissues: tissues overall (FIG. 3)
Protocol: Six-eight-week-old C57Bl/6 male mice were divided into 9 groups of five mice. 5×10^11 vg/kg of AAV8-sp7-Δ8-co1GAA vectors were administered at day 0 intravenously in awake, restrained animals via tail vein injection. Two months after the AAV treatment, 7 pharmacological chaperone molecules or combination of them were orally administered to the mice using a “3 on/4 off” regimen (three consecutive days of treatment followed by four consecutive days with drinking water only) for four weeks. At the end of this four-week period, all mice were sacrificed and different organs and muscles were collected (liver, heart, brain, spinal cord, diaphragm, quadriceps, and triceps). C57Bl/6 mice were injected either with PBS (CTRL) or with 5×10^11 vg/kg of the AAV8 vector expressing secretable therapeutic hGAA polypeptide (AAV-GAA).
Two months after vector injection, mice were treated for four weeks with 100 mg/kg/die of duvoglustat (DNJ, AX61Q1, Interchim, San Diego, Calif.), 100 mg/kg/die of duvoglustat combined with 25 mg/kg/die of ambroxol (DNJ-ABX), 25 mg/kg/die of ambroxol hydrochloride (ABX, A9797, Sigma, Saint Louis, Mo.), 2 mg/kg/die of voglibose (VOGLIBOSE, S4101, Selleckchem, Houston, Tex.), 20 mg/kg/die of acarbose (ACARBOSE, S1271, Selleckchem, Houston, Tex.), 2 mg/kg/die of miglitol (MIGLITOL, S2589, Selleckchem, Houston, Tex.) or 4200 mg/kg/die of N-acetyl-cysteine (NAC, A7250, Sigma, Saint Louis, Mo.) dissolved in drinking water (FIG. 1). One group received normal drinking water (WATER).
Three months after vector injection, mice were sacrificed and the levels of human GAA (hGAA) in blood and tissues were analyzed by Western blot.
At the end of the study (3 months post-injection), animals were sacrificed by CO2 inhalation. Liver, heart, brain, spinal cord, diaphragm, quadriceps, and triceps were collected and snap-frozen in liquid nitrogen for biochemical analysis. Frozen samples were stored at −80° C. until processing.
Mouse tissues were collected at sacrifice and homogenized in PBS. Protein concentration was determined using the BCA Protein Assay (Thermo Fisher Scientific, Waltham, Mass.). Plasma and tissues samples were diluted 1:20 in water (except for brain, where samples were diluted 1:200). SDS-page electrophoresis was performed in a 4-12% gradient polyacrylamide gel. After transfer, the membrane was blocked with Odyssey buffer (Li-Cor Biosciences, Lincoln, Nebr.), incubated with an anti-human GAA antibody (rabbit monoclonal antibody, Abcam, Cambridge, UK) and an anti-GAPDH antibody (rabbit polyclonal antibodies, PA1-988, Life Technologies, Carlsbad, Calif.). The membrane was washed and incubated with the appropriate secondary antibody (Li-Cor Biosciences, Lincoln, Nebr.), and visualized by Odyssey imaging system (925-32213, Li-Cor Biosciences, Lincoln, Nebr.). To measure the uptake of GAA in tissues, the 70 KDa band (mature form), visualized by the anti-GAA antibody was quantified and normalized to the levels of expression of GAPDH used as loading control.

[2] = target: T1, human GAA (hGAA); assay: Circulating hGAA levels by Western blot in wild-type mice injected with AAV-GAA and given chaperones in drinking water; assay type: in vivo; conditions: wild-type C57Bl/6 mice, AAV-GAA 5×10^11 vg/kg, three months after vector injection, vs AAV-GAA mice on normal water (FIG. 2)
Protocol: Six-eight-week-old C57Bl/6 male mice were divided into 9 groups of five mice. 5×10^11 vg/kg of AAV8-sp7-Δ8-co1GAA vectors were administered at day 0 intravenously in awake, restrained animals via tail vein injection. Two months after the AAV treatment, 7 pharmacological chaperone molecules or combination of them were orally administered to the mice using a “3 on/4 off” regimen (three consecutive days of treatment followed by four consecutive days with drinking water only) for four weeks. At the end of this four-week period, all mice were sacrificed and different organs and muscles were collected (liver, heart, brain, spinal cord, diaphragm, quadriceps, and triceps). C57Bl/6 mice were injected either with PBS (CTRL) or with 5×10^11 vg/kg of the AAV8 vector expressing secretable therapeutic hGAA polypeptide (AAV-GAA). […]
Three months after vector injection, mice were sacrificed and the levels of human GAA (hGAA) in blood and tissues were analyzed by Western blot. […]
Mouse tissues were collected at sacrifice and homogenized in PBS. Protein concentration was determined using the BCA Protein Assay (Thermo Fisher Scientific, Waltham, Mass.). […] To measure the uptake of GAA in tissues, the 70 KDa band (mature form), visualized by the anti-GAA antibody was quantified and normalized to the levels of expression of GAPDH used as loading control.

[3] = target: GAA (Homo sapiens, UniProt P10253); assay: GAA activity in tissues (4-MU substrate cleavage) of GAA KO mice injected with AAV-hGAA plus chaperones; assay type: in vivo; conditions: for GAA activity (uptake) in tissues: tissues overall (FIG. 7)
Protocol: (§1) Three to four-month-old GAA deficient male mice were divided into six groups and one control group was composed by wild-type littermates. Each group was composed by eight mice in maximum two cages, to facilitate the administration of the drugs dissolved in drinking water. Starting from day 0, GAA deficient (KO) mice (mouse strain B6; 129-Gaa^tm1Rabn/J) were injected with AAV-hGAA at 1×10^11 vg/kg via tail vein injection in combination with the different pharmacological chaperones (PC) dissolved in the drinking water. In parallel, untreated GAA wild-type mice and two groups of GAA deficient mice injected with the AAV-hGAA vector or PBS were used as controls. PC molecules were orally administered to the mice, using a “3 days on/4 days off” regimen, consisting in three consecutive days of treatment followed by four consecutive days with drinking water only, as described in FIG. 4. Mice receive 100 mg/kg/die of duvoglustat (DNJ, AX61Q1, Interchim, San Diego, Calif.), 100 mg/kg/die of duvoglustat combined with 25 mg/kg/die of ambroxol hydrochloride (DNJ-ABX), 25 mg/kg/die of ambroxol hydrochloride (ABX, A9797, Sigma, Saint Louis, Mo.), 4200 mg/kg/die of N-acetyl-cysteine (NAC, A7250, Sigma, Saint Louis, Mo.) dissolved in drinking water (FIG. 4) or normal drinking water.
Circulating hGAA activity and levels were monitored over a period of two months. Mice were sacrificed and different organs and muscles were collected (heart, diaphragm, quadriceps, and triceps) to measure the uptake of GAA in tissues and the glycogen clearance.
At the end of the study (2 months post-injection), animals were sacrificed by CO2 inhalation. Heart, diaphragm, quadriceps, and triceps were collected and snap-frozen in liquid nitrogen for biochemical analysis. Frozen samples are stored at −80° C. until processing.
GAA activity was assessed in plasma and tissue by measurement of 4-methyl-umbelliferyl-α-d-glucoside (4-MU, Sigma, St Louis, Mo.) cleavage at pH 4.3. To this end, mouse tissues collected at sacrifice was homogenized in PBS. Insoluble proteins were removed by centrifugation. The protein content of the resultant lysates was quantified via the BCA Protein Assay (Thermo Fisher Scientific, Waltham, Mass.). Plasma and tissues samples were diluted in water and 10 μL of each sample were incubated with 20 μL of reconstituted substrate for 1 hr at 37° C. After stopping the reaction, the released fluorescence was measured with EN-SPIRE® fluorimeter (Perkin Elmer, Waltham, Mass.). GAA activity was normalized against total protein content or plasma volume.

[4] = general statement, no test described; cited from earlier work
[5] = system: GAA; conditions: Pompe cells model expressing mutant forms of GAA, reference [9]; cited from earlier work
[6] = target: T1, human GAA (hGAA); assay: Circulating hGAA levels by Western blot in GAA KO mice injected with AAV-hGAA plus chaperones; assay type: in vivo; conditions: AAV-hGAA 1×10^11 vg/kg, two months after vector injection (FIG. 5)
Protocol: as §1
Circulating hGAA activity and levels were monitored over a period of two months. […]

Q: Which results are given for `CC(=O)N[C@@H](CS)C(=O)O` [NAC, N-acetylcysteine]?
A: GAA uptake in tissues [1]: increase; levels of circulating hGAA [2]: significant increase; GAA activity (uptake) in tissues [3]: No significant differences

Q: With “recombinant hGAA (ERT): recombinant GAA polypeptide alglucosidase alfa, marketed by Genzyme as Lumizyme or Myozyme” as the compound, how does the half-life [4] read?
A: relatively short

Q: What does the source list for `Nc1c(Br)cc(Br)cc1CN[C@H]1CC[C@H](O)CC1` [ABX, ambroxol]?
A: GAA uptake in tissues [1]: increase; tissue uptake of GAA, especially in a tissue of the nervous system [5]: did not increase; GAA activity (uptake) in tissues [3]: No significant differences

Q: For `OC[C@H]1NC[C@H](O)[C@@H](O)[C@@H]1O` [DNJ, 1-deoxynojirimycin], which “levels of circulating hGAA” value [6] is on record?
A: significant increase

Q: What about the “mature lysosomal form of hGAA in triceps” value ([1]; Western blot (FIG. 3B), significance reached in triceps only for DNJ group) of the same compound?
A: increased levels

Q: What about the “mature lysosomal form of hGAA in spinal cord” value ([1]; Western blot (FIG. 3F)) of the same compound?
A: increased levels

Q: What about the “mature lysosomal form of hGAA in diaphragm” value ([1]; Western blot band density normalized to GAPDH (FIG. 3C)) of the same compound?
A: increased levels

Q: What about the “GAA uptake in tissues” value [1] of the same compound?
A: increase

Q: And the “levels of circulating hGAA” value [2]?
A: significant increase

Q: What about the “GAA activity in heart” value ([3]; two months (FIG. 7A), significance only with both DNJ and ABX) of the same compound?
A: increased enzyme activity

Q: What about the “GAA activity in diaphragm” value ([3]; two months (FIG. 7B), significance only with both DNJ and ABX) of the same compound?
A: increased enzyme activity

Q: What about the “GAA activity in triceps” value ([3]; two months (FIG. 7C), significance only with both DNJ and ABX) of the same compound?
A: increased enzyme activity

Q: And the “GAA activity in quadriceps” value ([3]; two months (FIG. 7D), significance only with both DNJ and ABX)?
A: increased enzyme activity
